Source: ChEMBL document CHEMBL1201862, “PubChem BioAssay data set” (2004)
The source made the active and inactive calls.

Assays:
Kallikrein-7 = Kallikrein-7 (Homo sapiens, UniProt P49862); test: Fluorescence Intensity-based biochemical primary high throughput dose response assay to identify activators of kallikrein-7 (K7) zymogen.
[1] = target: Dual specificity tyrosine-phosphorylation-regulated kinase 1A (Rattus norvegicus, UniProt Q63470); type: biochemical, Homo sapiens
[2] = target: Bifunctional protein GlmU (Mycobacterium tuberculosis, UniProt P9WMN3); test: Inhibitors of Mycobacterial Glucosamine-1-phosphate acetyl transferase (GlmU). Secondary screen.; design: species or system Mycobacterium tuberculosis H37Rv
Sequence of Bifunctional protein GlmU (P9WMN3 whole entry): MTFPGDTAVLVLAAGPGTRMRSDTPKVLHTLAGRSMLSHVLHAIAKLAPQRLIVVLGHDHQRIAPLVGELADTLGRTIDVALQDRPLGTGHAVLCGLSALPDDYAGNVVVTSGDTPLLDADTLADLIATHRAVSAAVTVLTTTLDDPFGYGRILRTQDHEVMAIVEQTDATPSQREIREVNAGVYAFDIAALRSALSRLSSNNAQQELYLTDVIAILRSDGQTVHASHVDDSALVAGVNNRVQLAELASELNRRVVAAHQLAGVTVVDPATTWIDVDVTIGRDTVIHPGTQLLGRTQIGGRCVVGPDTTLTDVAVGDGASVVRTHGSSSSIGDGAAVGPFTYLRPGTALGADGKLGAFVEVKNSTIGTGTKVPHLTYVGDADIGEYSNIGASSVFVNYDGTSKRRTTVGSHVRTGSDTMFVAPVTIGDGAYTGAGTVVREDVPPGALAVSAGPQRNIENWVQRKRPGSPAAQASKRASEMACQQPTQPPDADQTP

[3] = CellTiter-Glo luminescent dose response of DLD-1 viability loss (AID 1117352); type: functional
[4] = cytotoxicity toward Colo320 cells – cell-based, CellTiter-Glo luminescence, IC50, dose response (AID 1117334); type: functional; settings: COLO 320
[5] = SNU-C1 cell viability reduction, dose response, CellTiter-Glo luminescence (AID 1117323); type: functional, cell-based
[6] = RKO cell viability reduction, dose response, CellTiter-Glo luminescence (AID 1117322); type: functional
[7] = Concentration-dependent survival of SW480 colon cancer line, luminescence detection with CellTiter-Glo, half-maximal inhibitory concentration (AID 1117338); type: functional
[8] = cytotoxicity toward HT-29 cells – cell-based, CellTiter-Glo luminescence, IC50, dose response (AID 1117330); type: functional
[9] = cytotoxicity toward HCT116 cells – cell-based, CellTiter-Glo luminescence, IC50, dose response (AID 1117332); type: functional; settings: HCT-116
[10] = HCT116 cell viability decrease, GSK3B pretreatment – CellTiter-Glo, IC50, dose response (AID 1117339); type: functional; settings: HCT-116
Streptokinase A = target: T1, Streptokinase A (Streptococcus pyogenes serotype M1, UniProt P10520); test: S. pyogenes streptokinase expression inhibitors, potency, dose response, plasminogen activation absorbance, OD405 (AID 1914); type: functional, Streptococcus pyogenes M1 GAS;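 further: secreted streptokinase activity via plasminogen activation per viability signal from cell pellet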
T1 sequence (P10520 whole entry): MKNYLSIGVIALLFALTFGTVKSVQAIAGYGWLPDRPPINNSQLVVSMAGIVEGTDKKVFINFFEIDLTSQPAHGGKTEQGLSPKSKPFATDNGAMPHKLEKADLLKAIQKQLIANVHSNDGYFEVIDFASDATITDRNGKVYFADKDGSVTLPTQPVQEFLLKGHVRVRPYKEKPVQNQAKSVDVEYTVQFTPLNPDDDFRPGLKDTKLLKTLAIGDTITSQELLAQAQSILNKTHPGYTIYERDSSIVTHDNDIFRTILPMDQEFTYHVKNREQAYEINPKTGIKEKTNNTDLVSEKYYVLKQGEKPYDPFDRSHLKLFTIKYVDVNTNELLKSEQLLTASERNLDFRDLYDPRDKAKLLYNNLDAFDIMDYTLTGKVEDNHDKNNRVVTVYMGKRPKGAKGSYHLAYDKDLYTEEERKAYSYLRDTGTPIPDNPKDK

[11] = HEK293T cell cytotoxicity, dose response, cytotoxicity control, CellTiter-Glo luminescence, dry powder, set 2 (AID 720595); type: functional, cell-based; settings: HEK293
[12] = HeLa cell cytotoxicity, dose response, cytotoxicity control, CellTiter-Glo luminescence, dry powder, set 2 (AID 720593); type: functional, cell-based
Nonstructural protein 1 = Nonstructural protein 1 (Influenza A virus, UniProt Q194T2); type: functional, Influenza A virus (A/California/07/2009(H1N1))
Sequence of Nonstructural protein 1 (Q194T2 whole entry): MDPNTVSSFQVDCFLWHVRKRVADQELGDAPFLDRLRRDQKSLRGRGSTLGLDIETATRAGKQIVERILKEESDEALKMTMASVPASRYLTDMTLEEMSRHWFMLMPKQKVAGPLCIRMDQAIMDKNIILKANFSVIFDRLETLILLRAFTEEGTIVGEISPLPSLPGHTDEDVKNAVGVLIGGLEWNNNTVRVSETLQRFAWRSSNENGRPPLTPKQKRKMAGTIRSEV

[13] = system: Streptococcus sp. 'group A'; test: growth inhibition of control SK(-) GAS strain, dose response, counter-screen for streptokinase expression inhibitor project, luminescence, kanamycin, BacTiterGlo, confirmation (AID 1900); type: functional, organism-based
Streptococcus = test: Group A Streptococcus viability loss, dose response, counter-screen for streptokinase expression inhibitor project, luminescence, BacTiterGlo (AID 1915); type: functional, organism-based;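 further: potency for reduction of bacterial viability or growth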
[14] = A549 cell cytotoxicity, dose response, cytotoxicity control, 24 h, CellTiter-Glo luminescence, cherry-picks (AID 1053115); type: functional, cell-based; settings: A549, 24 h
[15] = inhibitors of SNCA 5'UTR-driven reporter translation, confirmation, H4 neuroglioma cells, luminescence (AID 1988); type: functional, cell-based
[16] = inhibitors of firefly luciferase expression or activity, dose response, H4 neuroglioma cells, luminescence (AID 1990); type: functional, cell-based
[17] = Artemis endonuclease inhibitor potency, dose response, biochemical, fluorescence intensity (AID 720701); type: functional;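 further: Artemis endonuclease enzyme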
[18] = Luminescence Cell-Based Dose Response HTS to Identify Inhibitors of 5'UTR Stem-Loop Driven Prion Protein mRNA Translation in H4 Neuroglioblastoma Cells. [Related pubchem assays: 1827 (Project Summary), 1813 (Primary HTS)]; type: functional
Vero = test: host cell cytotoxicity of antiviral hits, dose response, cytotoxicity control for West Nile virus antiviral project, secondary assay (AID 1650); type: functional; settings: Chlorocebus sabaeus
[19] = HepG2 cell cytotoxicity, dose response, cytotoxicity control, cherry-picked samples (AID 1159577); type: functional, cell-based
[20] = P. falciparum Dd2 growth inhibitors, dose response, SYBR Green, cherry-picked samples (AID 1159567); type: functional, cell-based
[21] = target: Peroxisome proliferator-activated receptor gamma/Nuclear receptor corepressor 2 (Homo sapiens, UniProt P37231+Q9Y618); test: Counterscreen for NR2E3 inverse agonists: TR-FRET-based biochemical high throughput dose response assay to identify inverse agonists of the interaction between peroxisome proliferator-activated receptor gamma (PPARg) and nuclear receptor co-repressor 2 (NCOR2).; type: functional
[22] = target: Photoreceptor-specific nuclear receptor (Homo sapiens, UniProt Q9Y5X4); test: NR2E3 inverse agonists, dose response, biochemical, TR-FRET (AID 463256); type: functional
Sequence of Photoreceptor-specific nuclear receptor (Q9Y5X4 whole entry): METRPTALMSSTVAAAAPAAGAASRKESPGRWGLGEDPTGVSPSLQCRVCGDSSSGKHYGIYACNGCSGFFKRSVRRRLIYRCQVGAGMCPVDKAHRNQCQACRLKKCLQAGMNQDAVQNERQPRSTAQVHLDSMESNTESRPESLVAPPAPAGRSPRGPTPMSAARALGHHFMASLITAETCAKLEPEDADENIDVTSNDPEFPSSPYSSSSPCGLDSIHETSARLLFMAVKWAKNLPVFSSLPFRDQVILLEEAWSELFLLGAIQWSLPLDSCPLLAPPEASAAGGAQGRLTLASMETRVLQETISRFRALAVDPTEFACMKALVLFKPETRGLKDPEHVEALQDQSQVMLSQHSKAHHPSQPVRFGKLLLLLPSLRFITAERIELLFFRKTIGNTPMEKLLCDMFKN

Estrogen receptor = target: T2, Estrogen receptor (Homo sapiens, UniProt P03372);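 further: potency for inhibiting coactivator peptide recruitment to the receptor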
T2 sequence (P03372 whole entry): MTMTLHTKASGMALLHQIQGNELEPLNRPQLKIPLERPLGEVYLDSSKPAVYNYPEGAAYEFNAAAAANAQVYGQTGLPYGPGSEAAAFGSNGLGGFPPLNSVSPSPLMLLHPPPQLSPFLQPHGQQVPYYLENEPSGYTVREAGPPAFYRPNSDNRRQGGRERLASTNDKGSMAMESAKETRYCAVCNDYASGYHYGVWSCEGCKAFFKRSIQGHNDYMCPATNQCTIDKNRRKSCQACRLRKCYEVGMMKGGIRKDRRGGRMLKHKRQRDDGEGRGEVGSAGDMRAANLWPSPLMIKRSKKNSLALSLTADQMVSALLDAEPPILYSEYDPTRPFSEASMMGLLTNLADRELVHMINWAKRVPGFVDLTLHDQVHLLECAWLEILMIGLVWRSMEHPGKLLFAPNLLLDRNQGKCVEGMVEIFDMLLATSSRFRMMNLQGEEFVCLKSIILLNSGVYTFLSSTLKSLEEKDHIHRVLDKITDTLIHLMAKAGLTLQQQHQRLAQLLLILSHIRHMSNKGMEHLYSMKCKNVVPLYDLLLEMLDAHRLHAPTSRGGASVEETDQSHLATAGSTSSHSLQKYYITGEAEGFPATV

Ephrin type-A receptor 4 = Ephrin type-A receptor 4 (Mus musculus, UniProt Q03137); test: inhibitors of EphA4 binding to KYL peptide, primary screen, biochemical, colorimetric, mouse EphA4 (AID 689); type: functional
Sequence of Ephrin type-A receptor 4 (Q03137 whole entry): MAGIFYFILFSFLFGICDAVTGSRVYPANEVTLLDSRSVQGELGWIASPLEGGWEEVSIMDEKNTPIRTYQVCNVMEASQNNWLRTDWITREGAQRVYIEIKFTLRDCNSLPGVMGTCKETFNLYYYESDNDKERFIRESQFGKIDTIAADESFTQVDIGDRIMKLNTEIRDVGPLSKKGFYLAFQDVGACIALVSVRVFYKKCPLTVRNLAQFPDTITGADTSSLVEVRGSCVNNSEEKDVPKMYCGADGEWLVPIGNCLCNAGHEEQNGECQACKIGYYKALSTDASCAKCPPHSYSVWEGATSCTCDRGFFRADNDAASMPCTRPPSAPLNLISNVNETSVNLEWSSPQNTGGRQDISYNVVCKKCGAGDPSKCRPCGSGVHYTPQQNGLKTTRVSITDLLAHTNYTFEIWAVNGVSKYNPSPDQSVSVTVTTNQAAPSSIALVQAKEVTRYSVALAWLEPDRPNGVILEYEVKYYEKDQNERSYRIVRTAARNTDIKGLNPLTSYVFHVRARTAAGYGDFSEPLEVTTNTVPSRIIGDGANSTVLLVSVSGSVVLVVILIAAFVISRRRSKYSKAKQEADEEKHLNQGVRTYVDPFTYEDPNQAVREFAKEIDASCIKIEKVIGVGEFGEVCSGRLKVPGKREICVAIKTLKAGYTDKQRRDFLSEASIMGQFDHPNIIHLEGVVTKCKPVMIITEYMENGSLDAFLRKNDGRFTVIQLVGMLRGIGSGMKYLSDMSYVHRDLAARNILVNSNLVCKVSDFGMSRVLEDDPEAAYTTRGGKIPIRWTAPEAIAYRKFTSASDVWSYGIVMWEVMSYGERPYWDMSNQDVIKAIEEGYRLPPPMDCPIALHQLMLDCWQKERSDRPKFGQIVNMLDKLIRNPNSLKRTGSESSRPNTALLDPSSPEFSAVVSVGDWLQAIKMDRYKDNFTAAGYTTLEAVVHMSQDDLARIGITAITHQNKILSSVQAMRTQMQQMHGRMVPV

[23] = target: T3, Heat shock factor protein 1 (Mus musculus, UniProt P38532); test: inhibition of MG132-induced HSE-luciferase signal, confirmation, cell-based, NIH3T3, luminescence, dose retest (AID 2382); type: functional;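 further: NIH3T3 fibroblasts with HSF1-driven luciferase reporter stressed by proteasome inhibitor MG132; luminescence from HSF1-driven luciferase expression after 8 hours of MG132 stress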
T3 sequence (P38532 whole entry): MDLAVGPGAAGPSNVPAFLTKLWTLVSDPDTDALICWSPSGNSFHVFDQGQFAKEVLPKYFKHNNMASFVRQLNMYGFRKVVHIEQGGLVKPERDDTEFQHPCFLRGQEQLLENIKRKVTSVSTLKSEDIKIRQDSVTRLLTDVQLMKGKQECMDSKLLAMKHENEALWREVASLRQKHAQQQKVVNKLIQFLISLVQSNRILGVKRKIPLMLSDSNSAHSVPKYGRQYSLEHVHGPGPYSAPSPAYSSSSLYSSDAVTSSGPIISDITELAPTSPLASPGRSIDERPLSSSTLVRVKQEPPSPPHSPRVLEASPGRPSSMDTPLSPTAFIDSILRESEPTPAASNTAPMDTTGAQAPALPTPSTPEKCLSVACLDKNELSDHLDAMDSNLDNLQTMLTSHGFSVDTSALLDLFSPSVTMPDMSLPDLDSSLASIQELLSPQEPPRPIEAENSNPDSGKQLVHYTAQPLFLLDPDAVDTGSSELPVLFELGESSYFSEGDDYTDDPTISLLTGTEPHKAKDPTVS

[24] = target: 5-hydroxytryptamine receptor 1A (Homo sapiens, UniProt P08908); type: functional
NADPH oxidase 1 [25] = target: T4, NADPH oxidase 1 (Homo sapiens, UniProt Q9Y5S8); test: NOX1 inhibitors, concentration-response, dose response, cell-based, luminescence, cherry picks 2 (AID 434997); type: functional
T4 sequence (Q9Y5S8 whole entry): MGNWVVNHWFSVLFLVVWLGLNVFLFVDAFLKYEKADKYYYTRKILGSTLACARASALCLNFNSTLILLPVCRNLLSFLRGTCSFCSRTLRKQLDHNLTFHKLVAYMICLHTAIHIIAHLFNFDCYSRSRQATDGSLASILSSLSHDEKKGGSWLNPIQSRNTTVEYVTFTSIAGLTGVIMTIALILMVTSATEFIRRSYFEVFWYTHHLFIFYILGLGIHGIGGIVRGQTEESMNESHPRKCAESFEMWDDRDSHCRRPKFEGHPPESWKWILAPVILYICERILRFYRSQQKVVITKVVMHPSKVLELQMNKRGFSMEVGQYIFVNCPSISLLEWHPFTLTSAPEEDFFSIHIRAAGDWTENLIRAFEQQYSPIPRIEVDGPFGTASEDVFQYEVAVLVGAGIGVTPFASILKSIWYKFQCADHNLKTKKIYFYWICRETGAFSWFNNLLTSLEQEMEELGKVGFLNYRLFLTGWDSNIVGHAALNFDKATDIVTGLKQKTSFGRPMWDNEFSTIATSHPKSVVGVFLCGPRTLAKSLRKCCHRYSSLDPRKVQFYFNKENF

NADPH oxidase 1 [26] = target: T4, NADPH oxidase 1; test: Late stage results from the probe development effort to identify inhibitors of NOX1: HEK/293 IC50. [Related pubchem assays: 1796 (Summary AID (NOX1)), 2752 (Primary screen (NOX1 inhibitors, synthesized analogs set 2)), 2664 (Primary screen (NOX1 inhibitors, synthesized analogs)), 1792 (Primary Screen (NOX1)), 2545 (Confirmation screen (NOX1 …; type: functional
[27] = target: Heat shock protein HSP 90-alpha (Homo sapiens, UniProt P07900); test: Luminescence-based dose response biochemical high throughput screening assay for inhibitors of the Heat Shock Protein 90 (HSP90). [Related pubchem assays: 1831 (Summary AID.), 1846 (Confirmation screen.), 1789 (Primary screen.)]
Vasopressin V1b receptor = Vasopressin V1b receptor (Homo sapiens, UniProt P47901); test: Late-stage results from the probe development effort to identify antagonists of arginine vasopressin receptor 1a (AVPR1a): fluorescence-based cell-based dose response AVPR1b inhibition counterscreen assay.; type: functional
Sequence of Vasopressin V1b receptor (P47901 whole entry): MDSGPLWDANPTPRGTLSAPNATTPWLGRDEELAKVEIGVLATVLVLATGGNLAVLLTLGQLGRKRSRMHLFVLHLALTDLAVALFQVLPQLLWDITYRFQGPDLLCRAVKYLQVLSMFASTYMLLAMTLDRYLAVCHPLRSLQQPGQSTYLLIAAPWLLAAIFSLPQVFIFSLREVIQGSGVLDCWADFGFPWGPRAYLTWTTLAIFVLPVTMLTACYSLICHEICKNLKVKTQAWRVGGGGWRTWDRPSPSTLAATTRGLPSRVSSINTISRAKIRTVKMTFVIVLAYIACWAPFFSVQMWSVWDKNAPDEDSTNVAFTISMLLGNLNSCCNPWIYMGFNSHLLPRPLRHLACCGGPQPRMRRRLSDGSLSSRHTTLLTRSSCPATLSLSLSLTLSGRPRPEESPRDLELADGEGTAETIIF

Vasopressin V2 receptor = Vasopressin V2 receptor (Homo sapiens, UniProt P30518); test: Late-stage results from the probe development effort to identify antagonists of arginine vasopressin receptor 1a (AVPR1a): fluorescence-based cell-based dose response AVPR2 inhibition counterscreen assay.; type: functional
Sequence of Vasopressin V2 receptor (P30518 whole entry): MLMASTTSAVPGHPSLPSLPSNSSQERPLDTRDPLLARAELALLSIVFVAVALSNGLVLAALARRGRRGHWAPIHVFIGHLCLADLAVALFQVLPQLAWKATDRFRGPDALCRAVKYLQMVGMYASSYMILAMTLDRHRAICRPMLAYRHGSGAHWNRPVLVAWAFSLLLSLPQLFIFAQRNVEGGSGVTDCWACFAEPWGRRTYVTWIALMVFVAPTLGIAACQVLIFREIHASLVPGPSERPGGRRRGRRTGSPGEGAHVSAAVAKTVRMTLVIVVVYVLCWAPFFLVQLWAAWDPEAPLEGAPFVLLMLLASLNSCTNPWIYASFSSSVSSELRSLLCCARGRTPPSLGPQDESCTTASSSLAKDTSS

[28] = Late-stage results from the probe development effort to identify antagonists of arginine vasopressin receptor 1a (AVPR1a): fluorescence-based cell-based dose response AVPR1a inhibition assay.; type: functional
[29] = Late-stage results from the probe development effort to identify antagonists of arginine vasopressin receptor 1a (AVPR1a): fluorescence-based cell-based dose response OXTR inhibition counterscreen assay.; type: functional
[30] = target: T5, Voltage-gated inwardly rectifying potassium channel KCNH2 (Homo sapiens, UniProt Q12809); test: concentration dependence of hERG rescue from dofetilide, dose response, manual patch clamp, HEK293 cells (AID 2638); type: ADME
T5 sequence (Q12809 whole entry): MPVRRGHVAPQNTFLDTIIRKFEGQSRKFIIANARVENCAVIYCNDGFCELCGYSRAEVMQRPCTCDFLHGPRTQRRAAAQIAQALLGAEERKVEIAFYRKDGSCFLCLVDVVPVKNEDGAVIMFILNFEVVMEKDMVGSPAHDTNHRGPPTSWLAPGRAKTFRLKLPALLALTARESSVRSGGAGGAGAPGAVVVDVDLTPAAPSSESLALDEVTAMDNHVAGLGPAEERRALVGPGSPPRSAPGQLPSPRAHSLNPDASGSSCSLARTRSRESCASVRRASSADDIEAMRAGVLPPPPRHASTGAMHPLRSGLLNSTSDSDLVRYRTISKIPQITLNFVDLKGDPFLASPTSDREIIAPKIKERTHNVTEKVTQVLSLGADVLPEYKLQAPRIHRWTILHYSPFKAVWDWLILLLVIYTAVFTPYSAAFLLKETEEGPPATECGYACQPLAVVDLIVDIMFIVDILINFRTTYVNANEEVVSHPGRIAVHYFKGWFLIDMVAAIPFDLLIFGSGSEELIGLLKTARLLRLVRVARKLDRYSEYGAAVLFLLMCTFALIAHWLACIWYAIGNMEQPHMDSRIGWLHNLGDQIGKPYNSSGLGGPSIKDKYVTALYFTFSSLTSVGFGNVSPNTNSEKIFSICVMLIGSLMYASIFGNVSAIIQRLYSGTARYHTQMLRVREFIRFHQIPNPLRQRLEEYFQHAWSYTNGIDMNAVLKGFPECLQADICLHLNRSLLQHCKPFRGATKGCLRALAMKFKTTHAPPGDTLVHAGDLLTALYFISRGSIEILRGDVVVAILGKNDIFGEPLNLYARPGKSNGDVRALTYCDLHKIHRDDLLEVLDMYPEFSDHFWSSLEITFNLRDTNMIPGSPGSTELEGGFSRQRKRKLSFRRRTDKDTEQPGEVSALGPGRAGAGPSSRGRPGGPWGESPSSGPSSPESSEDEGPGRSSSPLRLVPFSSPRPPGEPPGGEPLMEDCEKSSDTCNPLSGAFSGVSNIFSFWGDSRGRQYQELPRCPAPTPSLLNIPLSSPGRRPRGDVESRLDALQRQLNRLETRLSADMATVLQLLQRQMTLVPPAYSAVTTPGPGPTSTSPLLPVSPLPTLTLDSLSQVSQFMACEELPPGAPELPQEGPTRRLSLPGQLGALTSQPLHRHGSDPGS

[31] = target: T5, Voltage-gated inwardly rectifying potassium channel KCNH2; test: hERG protection from proarrhythmic block, potency, dose response, cell-based, thallium flux (AID 2121); type: ADME
[32] = target: G-protein coupled receptor 183 (Homo sapiens, UniProt P32249); test: SAR confirmation of small molecule antagonists of the EBI2 receptor via a luminescent beta-arrestin assa.; type: functional

Sequence of Kallikrein-7 (P49862 whole entry): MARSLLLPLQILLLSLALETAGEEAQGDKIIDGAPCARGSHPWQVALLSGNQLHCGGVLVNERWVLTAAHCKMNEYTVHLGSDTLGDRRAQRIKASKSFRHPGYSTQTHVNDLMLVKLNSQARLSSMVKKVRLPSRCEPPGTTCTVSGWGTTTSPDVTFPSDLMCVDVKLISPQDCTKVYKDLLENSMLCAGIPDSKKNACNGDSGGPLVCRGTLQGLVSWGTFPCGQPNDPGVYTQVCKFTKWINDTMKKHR

SMILES: Cc1cc(=O)oc2c3c(cc(OCC(=O)NCc4ccncc4)c12)OC(C)(C)CC3
- EC50 (Kallikrein-7): > 69.5 µM (inactive)

SMILES: CC(C)S(=O)(=O)C1=NSC2=NC(=O)/C(=C\c3ccc(-c4cccc(C(=O)O)c4)o3)C(=N)N21
- AC50 [1]: 8.1 µM (active)
- IC50 [2]: 13.5 µM (active)

SMILES: CCCCCCCCCCCCCCCCCCOP(=O)([O-])OC1CC[N+](C)(C)CC1 [PERIFOSINE]
- IC50 [3]: > 20 µM (inactive)
- IC50 [4]: 2.36 µM (active)
- IC50 [5]: > 20 µM (inactive)
- IC50 [6]: 2.1 µM (active)
- IC50 [7]: 852 nM (active)
- IC50 [8]: 6.9 µM (inactive)
- IC50 [9]: 3.17 µM (active)
- IC50 [10]: 5.79 µM (inactive)

SMILES: Cc1ccc(C(=O)Nc2nc(-c3ccccn3)cs2)o1
- EC50 (Streptokinase A): > 150 µM (not active)
- AC50 [11]: 29.1 µM (active)
- AC50 [12]: > 52 µM (inactive)
- IC50 (Nonstructural protein 1): 10.1 µM (active)
- EC50 [13]: 17.9 µM (active)
- EC50 (Streptococcus): > 150 µM (not active)

SMILES: O=C(Nc1ccc2c(c1)[C@@H]1C[C@@H](CC(=O)N3CCCCC3)O[C@@H](CO)[C@@H]1O2)Nc1ccccc1F
- AC50 [14]: 47.8 µM (active)

SMILES: CSc1nnc2c3cc(C)ccc3n(Cc3ccccc3)c2n1
- EC50 [15]: > 120 µM (not active)
- EC50 [16]: > 120 µM (not active)
- IC50 [17]: 19.8 µM (active)
- EC50 [18]: > 120 µM (not active)

SMILES: Cn1cc([N+](=O)[O-])c(C(=O)Nc2ccn(Cc3c(F)c(F)cc(F)c3F)n2)n1
- CC50 (Vero): 20.8 µM (active)

SMILES: COc1ccc2c3c([nH]c2c1)[C@@H](CO)N(C(=O)Nc1ccc(F)cc1)CC31CN(Cc2ccccc2OC)C1
- AC50 [19]: 9.77 µM (active)
- AC50 [20]: 3.7 µM (active)

SMILES: Fc1ccc(CNc2nc3ccccc3n3cnnc23)cc1
- IC50 [21]: 1.42 µM (active)
- IC50 [22]: 2.69 µM (active)
- IC50 (Estrogen receptor): > 50 µM (not active)

SMILES: O=C1/C(=C\c2ccco2)SC(=S)N1Cc1ccccc1
- IC50 (Ephrin type-A receptor 4): 3.21 µM (active)

SMILES: COc1cc(CN2CCN(c3cccc(C)c3C)CC2)cc(OC)c1O
- EC50 [23]: > 195 µM (not active)
- EC50 [24]: > 50 µM (not active)

SMILES: Cc1cc(Cl)ccc1NC(=S)NNC(=S)Nc1ccc(F)cc1
- IC50 (NADPH oxidase 1 [25]): 670 nM (active)
- IC50 (NADPH oxidase 1 [26]): 960 nM (active)

SMILES: Cc1nc(CS(=O)(=O)c2ccc(Cl)cc2)sc1C(=O)O
- IC50 [27]: 12.1 µM (not active)

SMILES: Cc1ccnc(N2CCN(C(=O)N(CC3CC3)c3ccc(Cl)cc3)CC2)c1
- IC50 (Vasopressin V1b receptor): > 50 µM (inactive)
- IC50 (Vasopressin V2 receptor): > 50 µM (inactive)
- IC50 [28]: 15.8 nM (active)
- IC50 [29]: > 50 µM (inactive)

SMILES: O=C(O)c1cc(Cl)ccc1Nc1nc2cc(Cl)ccc2o1
- EC50 [30]: 107 µM (not active)
- EC50 [31]: 11.7 µM (active)

SMILES: O=C(/C=C/c1ccccc1C(F)(F)F)N1CCN(S(=O)(=O)c2ccc(Br)cc2)CC1
- IC50 [32]: 310 nM (active)
